These results are taken from patent US20220226321A1, “INHIBITOR OF MNK FOR THE TREATMENT OF NEUROPATHIC PAIN” (Board of Regents, The University of Texas System, priority 2019, published 2022).

One series deals with DRG. As to the kind of experiment: measurement of protein synthesis by puromycin incorporation in DRG. Type of series: in vivo, mouse. Conditions: single dose 10 mg/kg. On the procedure: Measurement of Protein Synthesis. Eight to 12-week-old wild-type and eiF4E^S209A mice were injected with puromycin (10 mg/kg via the intraperitoneal route, i.p.), and 1 hr later, DRGs were collected and processed for Western blotting using anti-puromycin monoclonal antibody (PMY-2A4, KeraFast). […] Protein synthesis was determined by measuring total lane signal from 250-15 KDa and subtracting unlabeled protein control. Signals were quantified using Image Lab (BioRad, Hercules, Calif.).

For series [1], the system named is eIF4E phosphorylation at serine 209. Conditions: in vitro, tumor cell lines; read-out: IC50, reduction of eIF4E phosphorylation at serine 209; cited from earlier work.
In a further series the test system is mice. Briefly: rotarod. It counts as in vivo, mouse. Conditions: 10 mg/kg i.p., 1 hour. As for the experimental part: Rotarod. Motor function was assessed using a rotarod (IITC Life Science rotarod series 8) with ramp speed (20 rpm acceleration) at a starting speed of […] for a maximum of 120s. The time until each animal fell was recorded for each trial. Naïve mice were trained for 1 trial, and then 2 baseline trials were conducted and scores for both trials were averaged.
A general note: In the rotarod test animals must keep their balance on a rotating rod.

The test system of another series is DRG neurons. Briefly: whole-cell patch clamp of cultured DRG neurons treated with IL-6 and eFT508. It counts as cell-based, mouse. On the procedure: Phosphorylation of the 5′ cap-binding protein eIF4E by MAPK interacting kinases MNK1/2 is important for nociceptor sensitization and the development of chronic pain. IL-6 induced DRG nociceptor excitability is attenuated in mice lacking eIF4E phosphorylation, in MNK1/2^−/− mice and by the nonselective MNK1/2 inhibitor cercosporamide. […] Dorsal root ganglion (DRG) neurons were cultured from male and female ICR mice, 4-7 weeks old. […] Whole-cell patch clamp recordings were done on small diameter neurons (20-30 pF) to measure membrane excitability in response to ramp depolarization. […] These findings are consistent with a model wherein MNK-eIF4E signaling controls the translation of signaling factors that regulate T-type VGCCs in response to IL-6 treatment.
(In general: In patch-clamp work, channel activity is measured electrically.)

Series [2] relates to models which harbor activating MyD88 mutations. The note with it: in vivo, multiple models; cited from earlier work.
The next series relates to SNI mice. As to the kind of experiment: attentional rule-shifting task after SNI. It counts as in vivo, mouse. The note with it: SNI mice vs SNI+vehicle, 10 mg/kg p.o. 7 days. As for the experimental part:
Surgery. Spared nerve injury (SNI) was performed by the ligation and cutting of the tibial and peroneal branches of the left sciatic nerve trifurcation, leaving the sural branch intact as previously described (Decosterd and Woolf, 2000). Sham surgeries were performed the same way but without cutting the nerve. Mice were allowed to recover for 2 weeks following surgery.
Attentional rule-shifting. Habituation: Mice were handled and gradually food restricted to 90% of their baseline weight over 3 weeks. Habituation took place over 3 days in which food rewards (Cheerio bits) were placed along each arm of a plusmaze. Mice were allowed to freely explore the maze and consume the food for 4 trials per day with a maximum time of 30 minutes per trial. When the mouse had consumed all of the food, the trial ended, and the mouse was returned to a holding cage while the maze was rebaited. The number of food pellets in each arm decreased from 4 to 2 to 1 on each consecutive day of habituation. Turn bias: On the fourth day the inventors assessed the animals' turn bias. Therefore, the plus maze was converted into a T-maze by blocking off one of the arms. Mice were placed in the stem arm (starting arm) and allowed to turn left or right to obtain a food pellet. After the mouse consumed the reward, it was returned to the stem arm and allowed to make another choice. […]

Series [3] deals with cultured mouse DRG neurons. Briefly: microelectrode array (MEA) recordings of cultured DRG neurons exposed to IL-6. It counts as cell-based. The note with it: for spontaneous firing: IL-6 100 ng/ml, tomivosertib 25 nM co-treatment. As for the experimental part:
Extracellular electrophysiology. Substrate-integrated microelectrode array (MEA) recordings were performed using PDL and laminin pre-treated 12-well MEA plates (Axion Biosystems, USA) and an Axion Maestro recording system. DRG sensory neurons were dissected, dissociated, and seeded as previously described (Moy et al., 2017). […] Cultures were maintained at 37° C., 5% CO2, and ≥90% humidity throughout the recordings. Briefly, 30 min baseline recordings were carried out following a 30 min acclimation period. […] Recordings were then collected continuously for 3 hours. […] Online and offline MEA data analysis was performed using Axion's AxIS, NeuralMetrics Tools, and NeuroExplorer (NeuroExplorer, USA). Physiologically relevant extracellular action potentials were defined as previously described^29.

Another series has as its system paclitaxel-treated mice. As to the kind of experiment: mechanical paw withdrawal threshold (von Frey) in paclitaxel-induced CIPN. Type of series: in vivo, mouse. Conditions: for mechanical allodynia / hypersensitivity, acute treatment: 10 mg/kg i.p. after full development of CIPN, 1st and 2nd injection, 1 and 3 hrs.

SMILES strings stand for the structures. Entries after “also recorded” stand apart in the source; their conditions may differ.

As usually defined, the IC50 is the concentration that inhibits the measured activity by half. With `Cc1cc(Nc2cc(N)ncn2)c(=O)n2c1C(=O)NC21CCCCC1` [eFT508, Tomivosertib], the “general translation (puromycin incorporation in the DRG)” value with DRG is given as “not influenced”. Besides, in series [1], the concentration for half-maximal inhibition (IC50) was 2 to 16 nM. Besides, the “rotarod performance vs naïve mice” value in the series with mice is listed as “no significant difference”. In addition, the “latency to the first action potential in the ramp protocol” value in the series with DRG neurons (IL-6, eFT508 pretreatment) is “rescued”. In addition, the “action potential firing in response to ramp depolarization” value with DRG neurons (one hr IL-6, eFT508 pretreatment followed by IL-6) is “blocked”. Besides, in series [2], the anti-tumor activity entry was “significant anti-tumor activity”. Moreover, the “never-reinforced (NRE) and regressive (REG) type errors” value with SNI mice is “significantly fewer”. Besides, the “firing, tomivosertib only vs IL-6 only group” value in series [3] (25 nM) is recorded as “reduction in firing”. Further, the spontaneous firing entry in series [3] (listed as Tomivosertib) is “significantly reduced”; in series [3] (listed as tomivosertib) it was “attenuated”. Moreover, the “firing rate at treatment time points vs baseline recording” value in series [3] (tomivosertib only group) was “no significant difference in firing rate”. Also, the “mechanical hypersensitivity (established CIPN), chronic treatment” value in the series with paclitaxel-treated mice (1 mg/kg, WT mice) is reported as “robust relief of mechanical hypersensitivity; also recorded: reverses established CIPN”. Besides, in the series on paclitaxel-treated mice (1 mg/kg, WT mice), the “tolerance to repeated dosing” value is “No signs of tolerance; also recorded: without inducing tolerance”. Besides, the “mechanical hypersensitivity, chronic treatment” value with paclitaxel-treated mice (1 mg/kg, eIF4E^S209A mice) is “completely absent; also recorded: completely without effect”. For the same compound, the “mechanical allodynia / hypersensitivity, acute treatment” value in the series with paclitaxel-treated mice was “reversal; also recorded: transiently relieves mechanical allodynia”; in the series with paclitaxel-treated mice (listed as eFT08) it was “relieves mechanical allodynia”.
